Literature values, collected in patent publication US20100069397A1, “SEXUAL DYSFUNCTION COMPOUNDS” (Pharmacia AB, priority 2002, published 2010).

What was measured:
[1] = dose of 1-3 mg, taken 0.5-1 h before sexual activity; per WO 00/40226
[2] = free base; per European Patent Application No. 0 960 621

Structure (SMILES)	therapeutic effect in sexual dysfunction [1]	solubility in water [2]
CN[C@@H]1Cc2cccc3[nH]c(=O)n(c23)C1.O=C(O)/C=C\C(=O)O [(R)-5,6-dihydro-5-(methylamino)-4H-imidazo[4,5-ij]-quinolin-2(1H)-one (Z)-2-butenedioate (1:1)]	therapeutically effective	–
CCCc1nn(C)c2c(=O)[nH]c(-c3cc(S(=O)(=O)N4CCN(C)CC4)ccc3OCC)nc12 [sildenafil]	–	extremely low solubility in water
